24 molecules from PubChem BioAssay AID1259408 (Genetic Toxicology Data Bank (GENE-TOX), 2018) can be followed below.

The structures appear in SMILES notation. Calls of active or inactive are those of the source. The rule behind the calls is not given here.

The data set deals with GENE-TOX genotoxicity assays, various organisms and cells. As to the kind of experiment: GENE-TOX mutagenicity studies. Particulars: for call: Assay Type: In vivo carcinogenicity studies.
[1] abbreviates: Species/Cell Type: Mouse, Sex: Male, Assay Type: Sperm morphology, Assay Code: SPI-, Evaluation Type: Evaluation A (Pre-1980).
Setting [2] is: Species/Cell Type: Salmonella typhimurium (one or more of the five standard strains: TA98, TA100, TA1535, TA1537, and TA1538), Assay Type: Histidine reverse gene mutation, Ames assay, Assay Code: SAL-, Evaluation Type: Evaluation A (Pre-1980).
Where [3] appears, read: Species/Cell Type: Drosophila melanogaster, Assay Type: Sex-linked recessive lethal gene mutation, Assay Code: SRL+, Evaluation Type: Evaluation A (Pre-1980).
[4] abbreviates: Species/Cell Type: Salmonella typhimurium (one or more of the five standard strains: TA98, TA100, TA1535, TA1537, and TA1538), Assay Type: Histidine reverse gene mutation, Ames assay, Assay Code: SAL+*, Activation: With metabolic activation, Evaluation Type: Evaluation A (Pre-1980).
Where [5] appears, read: Species/Cell Type: Chinese hamster lung (V79) cells, Assay Type: Forward gene mutation at the HPRT or ouabain locus, Assay Code: V79+, Evaluation Type: Evaluation A (Pre-1980).
Setting [6] is: Species/Cell Type: Drosophila melanogaster, Assay Type: Sex-linked recessive lethal gene mutation, Assay Code: SRLT, Evaluation Type: Evaluation A (Pre-1980).
Where [7] appears, read: Species/Cell Type: Saccharomyces cerevisiae, Assay Type: Mitotic recombination or gene conversion, Assay Code: YEH-, Evaluation Type: Evaluation A (Pre-1980).
[8] abbreviates: Species/Cell Type: Nonhuman, Assay Code: CCG+L, Evaluation Type: Evaluation A (Pre-1980).
Setting [9] is: Species/Cell Type: Salmonella typhimurium (one or more of the five standard strains: TA98, TA100, TA1535, TA1537, and TA1538), Assay Type: Histidine reverse gene mutation, Ames assay, Assay Code: SALT, Evaluation Type: Evaluation A (Pre-1980).
The mark [10] stands for this setting: Species/Cell Type: Nonhuman, Assay Type: Sister-chromatid exchange (SCE) in vitro, Assay Code: SC2+, Evaluation Type: Evaluation B (Post-1980).
Setting [11] is: Species/Cell Type: Saccharomyces cerevisiae, Assay Type: Mitotic recombination or gene conversion, Assay Code: YEH+, Evaluation Type: Evaluation A (Pre-1980).
The mark [12] stands for this setting: Species/Cell Type: Salmonella typhimurium (one or more of the five standard strains: TA98, TA100, TA1535, TA1537, and TA1538), Assay Type: Histidine reverse gene mutation, Ames assay, Assay Code: SAL+, Evaluation Type: Evaluation A (Pre-1980).
[13] abbreviates: Species/Cell Type: Bacillus subtilis (H17 vs M45), Assay Type: Rec-assay, spot test, DNA effects (bacterial DNA repair), Assay Code: REW+, Evaluation Type: Evaluation A (Pre-1980).

As for `CCCN(CCC)C(=O)SCC` (tested in a mixture with another compound), the mutagenic call (Species/Cell Type: Zea mays (corn), Assay Type: Gene mutation, Assay Code: ZEM-, Evaluation Type: Evaluation A (Pre-1980)) is “inactive; negative”.

Regarding `C[C@]12CC[C@@H](O)C[C@@H]1CC[C@@H]1[C@@H]2CC[C@]2(C)C(=O)CC[C@@H]12`, under setting [1], the mutagenic call is “inactive; negative”.

Regarding `FC(F)(Cl)Cl`, where the note is “Species/Cell Type: Tradescantia species, Assay Type: Gene mutation, Assay Code: TRM-, Evaluation Type: Evaluation A (Pre-1980)”, the mutagenic call is “inactive; negative”.

On to `Clc1cccc(Br)c1`, for which the mutagenic call under setting [2] is “inactive; negative”.

In the case of `O=NN1CCC(Cl)CC1`, the mutagenic call is, setting by setting: under setting [3], “active; positive”; under setting [4], “active; positive”.

As for `OC[P+](CO)(CO)CO`, where the note is “Species/Cell Type: Mammalian polychromatic erythrocytes, Assay Type: Micronucleus test, chromosome aberrations, Assay Code: MNTT, Evaluation Type: Evaluation B (Post-1980)”, the mutagenic call is recorded as “no conclusion”.

In the case of `ClC1=C(Cl)[C@]2(Cl)[C@@H]3[C@@H]4C[C@@H]([C@H]5O[C@@H]45)[C@@H]3[C@@]1(Cl)C2(Cl)Cl`, the mutagenic call was “active; positive” under setting [5]; “no conclusion” under setting [6]; “inactive; negative” (Species/Cell Type: Rodents, Sex: Male, Assay Type: Dominant lethal test, Assay Code: DLT-, Evaluation Type: Evaluation A (Pre-1980)); “inactive; negative” (Species/Cell Type: Saccharomyces cerevisiae, Assay Type: Forward and reverse gene mutation, mitotic recombination and gene conversion, host-mediated assay, Assay Code: HME-, Evaluation Type: Evaluation A (Pre-1980)); “inactive; negative” under setting [7]; “inactive; negative” under setting [2].

On to `CC1CCCN(N=O)C1` (stereo not given), for which the mutagenic call is, setting by setting: under setting [3], “active; positive”; (Species/Cell Type: Saccharomyces cerevisiae, Assay Type: Forward gene mutation, Assay Code: YEF+*, Activation: With metabolic activation, Evaluation Type: Evaluation A (Pre-1980)) “active; positive”; (Species/Cell Type: Saccharomyces cerevisiae, Assay Type: Reverse gene mutation, Assay Code: YER+*, Activation: With metabolic activation, Evaluation Type: Evaluation A (Pre-1980)) “active; positive”; under setting [4], “active; positive”. For the same molecule, under setting [8], the call was “active; positive”.

Regarding `ClC1=CC(c2cc(Cl)ccc2Cl)=C(Cl)[C@H]2O[C@@H]12`, the mutagenic call under setting [9] was “no conclusion”.

`O=NN(CCCl)C(=O)NC1CCCCC1`: the mutagenic call reads like this: under setting [5], “active; positive”; (Species/Cell Type: Chinese hamster ovary (CHO) cells, Assay Type: Forward gene mutation at the HPRT locus, Assay Code: CHO+, Evaluation Type: Evaluation B (Post-1980)) “active; positive”; (Species/Cell Type: Human lymphocytes, Assay Type: Sister-chromatid exchange (SCE) in vivo, Assay Code: SCY+, Evaluation Type: Evaluation B (Post-1980)) “active; positive”; under setting [10], “active; positive”; (Species/Cell Type: Rodents, Sex: Male, Assay Type: Dominant lethal test, Assay Code: DLT+D, Dose Response: With dose response, Evaluation Type: Evaluation A (Pre-1980)) “active; positive”. The call (Species/Cell Type: Nonhuman, Assay Code: CCG+, Evaluation Type: Evaluation A (Pre-1980)) is “active; positive”.

As for `CC1=CC(=C(c2ccc(N)cc2)c2ccc(N)cc2)C=CC1=N` (tested in a mixture with another compound), the mutagenic call (Species/Cell Type: Saccharomyces cerevisiae, Assay Type: Forward gene mutation, Assay Code: YEFT, Evaluation Type: Evaluation A (Pre-1980)) was “no conclusion”.

Take `C=CCNC(=O)Nc1nc(-c2ccccc2)cs1`: where the note is “Species/Cell Type: Salmonella typhimurium, Assay Type: Forward and reverse gene mutation, host-mediated assay, Assay Code: HMAT, Evaluation Type: Evaluation A (Pre-1980)”, the mutagenic call is recorded as “no conclusion”.

As to `ClCc1cccnc1`, the mutagenic call reads like this: (Species/Cell Type: Fischer rat embryo (RLV/1706) cells, Assay Type: Cell transformation, viral enhanced, Assay Code: CTR+, Evaluation Type: Evaluation A (Pre-1980)) “active; positive”; (Species/Cell Type: Mouse (BALB/c-3T3) cells, Assay Type: Cell transformation, Assay Code: CTB-, Evaluation Type: Evaluation A (Pre-1980)) “inactive; negative”. In addition, the call under setting [8] is “active; positive”.

Regarding `CC[C@H](C)[C@H](NC(=O)[C@@H](NC(=O)N[C@@H](Cc1ccccc1)C(=O)O)C1CCN=C(N)N1)C(=O)N[C@H](C=O)Cc1ccccc1` (stereo not given in full) (tested in a mixture with another compound), the mutagenic call (Species/Cell Type: Human, Assay Type: Sister-chromatid exchange (SCE) in vitro, Assay Code: SC1T, Evaluation Type: Evaluation B (Post-1980)) is given as “no conclusion”.

As for `CC1=CCc2c1c(C)cc1c2ccc2ccccc21`, the mutagenic call under setting [4] was “active; positive”.

`CC1CN(N=O)CC(C)O1` (stereo not given): under setting [4], the mutagenic call is “active; positive”.

On to `CC(CCC(C)OS(C)(=O)=O)OS(C)(=O)=O` (stereo not given), for which the mutagenic call under setting [3] is “active; positive”.

In the case of `ONc1cccc2ccccc12`, the mutagenic call runs as follows: (Species/Cell Type: Escherichia coli polA (W3119 vs P3478), Assay Type: Rec-assay, DNA effects (bacterial DNA repair), Assay Code: RE1+, Evaluation Type: Evaluation A (Pre-1980)) “active; positive”; (Species/Cell Type: Neurospora crassa, Assay Type: Forward gene mutation, Assay Code: NEF+, Evaluation Type: Evaluation A (Pre-1980)) “active; positive”; under setting [11], “active; positive”; under setting [12], “active; positive”; (Species/Cell Type: Salmonella typhimurium, Assay Type: Forward and reverse gene mutation, host-mediated assay, Assay Code: HMA-, Evaluation Type: Evaluation A (Pre-1980)) “inactive; negative”. For the same molecule, the call under setting [8] was “active; positive”.

For the molecule `COc1cc(C)c(-c2csc(N(C)C(=O)Nc3ccc(Cl)cc3)n2)cc1OC`, the mutagenic call (Species/Cell Type: Salmonella typhimurium, Assay Type: Forward and reverse gene mutation, host-mediated assay, Assay Code: HMA+, Evaluation Type: Evaluation A (Pre-1980)) was “active; positive”.

`C[As]=S` (stereo not given): under setting [13], the mutagenic call is “active; positive”.

For `Nc1ccnc(=O)[nH]1`, the mutagenic call under setting [6] is given as “no conclusion”.

Regarding `COC(=O)C[C@@H]1Cc2cc3c(-c4c(OC)cc(O)c5c(O)c6c(cc45)C[C@@H](CC(=O)OC)OC6=O)c(OC)cc(O)c3c(O)c2C(=O)O1`, the mutagenic call is “inactive; negative” under setting [7] and “no conclusion” under setting [9].

As to `Cc1cc(-c2cc(C)c(N)c(C)c2)cc(C)c1N`, the mutagenic call runs as follows: (Species/Cell Type: Human diploid fibroblasts, Assay Type: Unscheduled DNA synthesis (UDS) in vitro, DNA effects, Assay Code: UDH-*, Activation: With metabolic activation, Evaluation Type: Evaluation A (Pre-1980)) “inactive; negative”; (Species/Cell Type: Human, Assay Type: Sister-chromatid exchange (SCE) in vitro, Assay Code: SC1-, Evaluation Type: Evaluation B (Post-1980)) “inactive; negative”; (Species/Cell Type: Mammalian polychromatic erythrocytes, Assay Type: Micronucleus test, chromosome aberrations, Assay Code: MNT+, Evaluation Type: Evaluation A (Pre-1980)) “active; positive”; under setting [1], “inactive; negative”; under setting [10], “active; positive”; (Species/Cell Type: Nonhuman, Assay Type: Sister-chromatid exchange (SCE) in vivo, Assay Code: SC3T, Evaluation Type: Evaluation B (Post-1980)) “no conclusion”. Besides, the mutagenic call reads like this: under setting [2], “inactive; negative”; (Species/Cell Type: Tradescantia species, Assay Type: Gene mutation, Assay Code: TRM+D, Dose Response: With dose response, Evaluation Type: Evaluation A (Pre-1980)) “active; positive”.

Regarding `CCOP(=O)(OCC)SCCSCC` (tested in a mixture with another compound), the mutagenic call under setting [13] is “active; positive”; the mutagenic call (Species/Cell Type: Drosophila melanogaster, Assay Type: Sex-linked recessive lethal gene mutation, Assay Code: SRL-, Evaluation Type: Evaluation A (Pre-1980)) is “inactive; negative”; the mutagenic call (Species/Cell Type: Escherichia coli WP2 UVRA, Assay Type: Tryptophan reverse gene mutation, Assay Code: WPU+D, Dose Response: With dose response, Evaluation Type: Evaluation A (Pre-1980)) was “active; positive”; the mutagenic call (Species/Cell Type: Escherichia coli polA (W3119 vs P3478), Assay Type: Rec-assay, DNA effects (bacterial DNA repair), Assay Code: RE1-, Evaluation Type: Evaluation A (Pre-1980)) is “inactive; negative”; the mutagenic call (Species/Cell Type: Nonhuman, Assay Type: Sister-chromatid exchange (SCE) in vitro, Assay Code: SC2+D*, Activation: With metabolic activation, Dose Response: With dose response, Evaluation Type: Evaluation B (Post-1980)) is “active; positive”; the mutagenic call under setting [11] was “active; positive”. Moreover, the mutagenic call under setting [12] was “active; positive”.
